Reference: publication PMC6235670, “An mTOR Signaling Modulator Suppressed Heterotopic Ossification of Fibrodysplasia Ossificans Progressiva” (Stem Cell Reports, 2018)
Read-outs that look alike come from different tables or passages of the source.

Tests used:
ATDC5/FOP-ACVR1 cells [1] = assay: AlamarBlue viability assay in ATDC5/FOP-ACVR1; conditions: for Viability (%) @10 μM: AlamarBlue, ATDC5/FOP-ACVR1, 10 μM
Method: (§1) Generation of ATDC5 stably expressing ACVR1. WT - or FOP-ACVR1 was inserted into doxycycline (Dox)- […]
(§2) (KW111/WT-ACVR1 or KW111/FOP-ACVR1). KW111/WT-ACVR1 or KW111/FOP-ACVR1 and PBaseII […]
(§3) FuGeneHD® (Promega) according to the manufacturer’s protocol, and the neomycin- resistant population (500 µg/mL) was selected. Further selection was performed by selecting a mCherry high positive population (< 5%) after six hours of Dox treatment, sorting it with fluorescent-activated cell sorting (FACS) using AriaII (BD) according to the manufacturer’s protocol, and designating it as ATDC5/WT-ACVR1 or ATDC5/FOP-ACVR1.
(§4) KW111 included PB, active transposable PB elements; TRE-mCMVP, Tetracycline Response Element and a minimal CMV promoter; rtTA, reverse tetracycline-controlled transactivator. PBaseII was an expression plasmid vector containing the PB transposase cDNA with optimized codon usage to human under the control […]
(§5) HTS campaign and follow-up screens. ATDC5/FOP-ACVR1 cells were plated in 96-well white plates (2,000 cells/well/40 µ L, Corning) in DMEM/F-12 supplemented with 5% (v/v) FBS. […]
(§6) 37 °C under 5% CO2. After 3 days incubation, Alkaline Phosphatase activity (ALP) or AlamarBlue activity was measured using Amplite™ Colorimetric Alkaline Phosphatase Assay Kit (AAT Bioquest) or alamarBlue® Cell Viability Reagent (Thermo Fisher Scientific) according to the manufacturer’s protocol, respectively. T h e […]
(§7) was measured on POWERSCAN4 (DS Pharma Biomedical) or EnVision® Multilabel Reader (PerkinElmer).
(§8) Inhibitory effects of the screened compounds are given as percent inhibition, which was calculated using the following equation: (1-([Abs of compound] - [Abs of Min])/([Abs of Max] - [Abs of Min]))× 100, where [Abs of Max] and [Abs of Min] are the mean Abs of DMSO control and 1 µM DMH-1, respectively. The Z’ factor, which is widely used as a measure of the assay quality of each plate, was calculated using the following equation: Z’ factor = 1 - 3 × ([SD of Max] + [SD of Min])/([Abs of Max] - [Abs of Min]) (SI Appendix, Fig.
(§9) The S/B (signal-to-background) ratio was calculated using the following equation: ([Abs of Max]/[Abs of Min]) (SI Appendix, Fig. S3B).
(§10) Using ATDC5/FOP-ACVR1 cells, we performed a first screening (n=2; test compounds = 1 µM, Fig. […]

ATDC5/FOP-ACVR1 cells [2] = assay: ALP assay (HTS and dose-response) in ATDC5/FOP-ACVR1; type: cell-based, mouse; conditions: same protocol as HTS (72 h)
[3] = AlamarBlue viability assay in ATDC5/FOP-ACVR1; conditions: mouse, ATDC5 cells stably expressing FOP-ACVR1 (ATDC5/FOP-ACVR1)
Method: as §1, §2, §3, §4, §5, §6, §7, §8, §9, §10

FOP-iMSCs [4] = assay: Microarray / pathway analysis of activin A-induced chondrogenesis of FOP-iMSCs; type: cell-based, human; conditions: 100 nM, 100 ng/mL Activin-A, 7 days, microarray, N = 1
Method: Microarray experiments. 2D chondrogenic induction was performed in FOP-iMSCs stimulated with or without 100 ng/mL Activin-A, TAK 165, CP-724714 and Lapatinib. Seven days after incubation, mRNA was extracted. RNA was reverse transcribed, biotin-labeled and hybridized to GeneChip Human Gene 1.0 ST Expression Array, which was subsequently washed and scanned according to the manufacturer’s instructions (Affymetrix). Raw CEL files were imported into GeneSpring GX 12.6.1 software (Agilent Technologies), and expression values were calculated with the RMA16 algorithm. Pathway analysis was performed by Ingenuity pathway analysis (Qiagen). […]

FOP-iMSCs [5] = assay: 2D chondrogenic induction of FOP-iMSCs with activin A (GAG, Alcian blue); type: cell-based, human; conditions: activin A, 7 days; for effect on GAG in the chondrogenesis of FOP-iMSCs (ERBB2 kinase inhibitors): 100 nM and 1 µM
ATDC5/FOP-ACVR1 cells [6] = assay: ALP assay (HTS and dose-response) in ATDC5/FOP-ACVR1; type: cell-based, mouse
Method: ATDC5/FOP-ACVR1 cells were plated in 96-well white plates (2,000 cells/well/40 μL, Corning) in DMEM/F-12 supplemented with 5% (v/v) FBS. Two hours after incubation at 37°C under 5% CO2, 10 μL of test compounds (final 1 μM) was added, and the assay plates were incubated at 37°C under 5% CO2. After 3 days of incubation, ALP activity was measured using an Amplite Colorimetric Alkaline Phosphatase Assay Kit (AAT Bioquest) according to the manufacturer's protocol.
as §1, §2
FuGeneHD® (Promega) according to the manufacturer’s protocol, and the neomycin- resistant population (500 µg/mL) was selected. […]
HTS campaign and follow-up screens. […] After 3 days incubation, Alkaline Phosphatase activity (ALP) or AlamarBlue activity was measured using Amplite™ Colorimetric Alkaline Phosphatase Assay Kit (AAT Bioquest) or alamarBlue® Cell Viability Reagent (Thermo Fisher Scientific) according to the manufacturer’s protocol, respectively. […]
as §7, §8
The S/B (signal-to-background) ratio was calculated using the following equation: ([Abs of Max]/[Abs of Min]) (SI Appendix, Fig. S3B). […]

mTOR signaling (p-S6) = assay: p-S6 western blotting during chondrogenic induction of FOP-iMSCs with activin A; type: cell-based, human; conditions: 1 μM
Method: Western blotting. SDS- PAGE and blotting with whole-cell lysates were performed by standard procedures.
Protein bands were detected with ECL Prime Western Blotting Detection Reagent (GE Healthcare) and visualized using BIO-RAD Molecular Imager® Chemi-DocTM XRS+ with Image LabTM software (Bio-Rad).
All data (relative intensity) were corrected by β-actin.
Antibodies for western blotting and immunostaining.
N ame Company Cat. No Concentration
Human Activin RIA/ALK-2 Antibody R&D Systems) AF637 1:100
Anti-human Vimentin antibody Abcam ab16700 1:40
Collagen I Antibody Novus NB600- 1:100
Anti-rabbit IgG, HRP-linked Antibody Cell Signaling #7074 1:10000 […]
2nd Goat anti-Rabbit IgG (H+L) Secondary Antibody, Invitrogen A-11008 1:100 antibody Alexa Fluor® 488 conjugate
Goat anti-Rabbit IgG (H+L) Secondary Antibody, Invitrogen A-21428 1:500

## Nc1ncnc2c1c(-c1cccc(OCc3ccccc3)c1)cn2C1CC(CN2CCCC2)C1 (centres unmarked) [NVP-ADW742]
ATDC5/FOP-ACVR1 cells [1]
  Viability (%) @10 μM: -1%
ATDC5/FOP-ACVR1 cells [2]
  IC50: 6570 nM

## CC(C)(C)Cn1c(N)nc2ccc(-c3[nH]c(C(C)(C)C)nc3-c3ccc(F)cc3)nc21 [LY2228820]
[3]
  viability at 3 days, 10 µM: 75%
ATDC5/FOP-ACVR1 cells [2]; Mus musculus
  IC50: 11 nM

## CCc1c2c(nc3ccc(O)cc13)-c1cc3c(c(=O)n1C2)COC(=O)[C@]3(O)CC [SN 38]
ATDC5/FOP-ACVR1 cells [1]
  Viability (%) @10 μM: 17%
ATDC5/FOP-ACVR1 cells [2]
  IC50: 98 nM

## CS(=O)(=O)CCNCc1ccc(-c2ccc3ncnc(Nc4ccc(OCc5cccc(F)c5)c(Cl)c4)c3c2)o1 [lapatinib]
FOP-iMSCs [4]
  ADAMTS5 expression ratio to the TAK 165-treated group: 2.1
  BMP4 expression ratio to the TAK 165-treated group: 0.4
  DKK1 expression ratio to the TAK 165-treated group: 2.1
  FOS expression ratio to the TAK 165-treated group: 2.4
  FRZB expression ratio to the TAK 165-treated group: 3.0
  FZD3 expression ratio to the TAK 165-treated group: 0.4
  ITGA3 expression ratio to the TAK 165-treated group: 2.5
  ITGB3 expression ratio to the TAK 165-treated group: 3.6
  MMP1 expression ratio to the TAK 165-treated group: 3.0
  MMP13 expression ratio to the TAK 165-treated group: 6.9
  PIK3R3 expression ratio to the TAK 165-treated group: 2.1
  SPP1 expression ratio to the TAK 165-treated group: 3.7
  TNFRSF11B expression ratio to the TAK 165-treated group: 0.5
  WIF1 expression ratio to the TAK 165-treated group: 0.1
  WNT16 expression ratio to the TAK 165-treated group: 0.5
FOP-iMSCs [5]
  effect on GAG in the chondrogenesis of FOP-iMSCs (ERBB2 kinase inhibitors): no effect

## C=C1/C(=C\C=C2/CCC[C@]3(C)[C@@H]([C@H](C)/C=C/[C@@H](O)C4CC4)CC[C@@H]23)C[C@@H](O)C[C@@H]1O [Calcipotriol]
[3]
  viability at 3 days, 10 µM: 80%
ATDC5/FOP-ACVR1 cells [2]; Mus musculus
  IC50: 0.3 nM

## COc1ccc(-c2ccc3c(N4CCOC[C@@H]4C)nc(N4CCOC[C@@H]4C)nc3n2)cc1CO [AZD8055]
[3]
  viability at 3 days, 10 µM: 25%
ATDC5/FOP-ACVR1 cells [2]; Mus musculus
  IC50: 77 nM

## C=C1/C(=C\C=C2/CCC[C@]3(C)[C@@H]([C@H](C)CCCC(C)C)CC[C@@H]23)C[C@@H](O)C[C@@H]1O [Alfacalcidol]
[3]
  viability at 3 days, 10 µM: 54%
ATDC5/FOP-ACVR1 cells [2]; Mus musculus
  IC50: 526 nM

## C=C1/C(=C\C=C2/CCC[C@]3(C)[C@@H]([C@H](C)CCCC(C)(C)O)CC[C@@H]23)C[C@@H](O)C[C@@H]1O [Calcitriol]
[3]
  viability at 3 days, 10 µM: 81%
ATDC5/FOP-ACVR1 cells [6]; Mus musculus, 72 h, read-out: IC50 (ALP assay)
  IC50: 0.4 nM

## COCC(=O)NC/C=C/c1ccc2ncnc(Nc3ccc(Oc4ccc(C)nc4)c(C)c3)c2c1 [CP-724714]
FOP-iMSCs [4]
  ADAMTS5 expression ratio to the TAK 165-treated group: 3.1
  BMP4 expression ratio to the TAK 165-treated group: 5.2
  DKK1 expression ratio to the TAK 165-treated group: 0.2
  FOS expression ratio to the TAK 165-treated group: 3.2
  FRZB expression ratio to the TAK 165-treated group: 3.6
  FZD3 expression ratio to the TAK 165-treated group: 0.3
  ITGA3 expression ratio to the TAK 165-treated group: 3.9
  ITGB3 expression ratio to the TAK 165-treated group: 3.3
  MMP1 expression ratio to the TAK 165-treated group: 11.5
  MMP13 expression ratio to the TAK 165-treated group: 5.4
  PIK3R3 expression ratio to the TAK 165-treated group: 0.4
  SPP1 expression ratio to the TAK 165-treated group: 4.4
  TNFRSF11B expression ratio to the TAK 165-treated group: 3.4
  WIF1 expression ratio to the TAK 165-treated group: 0.1
  WNT16 expression ratio to the TAK 165-treated group: 3.0
mTOR signaling (p-S6); 24 hr
  p-S6 after 24-hr stimulation: no effects
mTOR signaling (p-S6); 7 days
  p-S6 after 7 days of stimulation: not
FOP-iMSCs [5]
  effect on GAG in the chondrogenesis of FOP-iMSCs (ERBB2 kinase inhibitors): no effect

## CC(C)Oc1ccc(-c2cnc3c(-c4ccnc5ccccc45)cnn3c2)cc1 [DMH-1]
ATDC5/FOP-ACVR1 cells [1]; 72 hr after Dox and compound
  viability (AlamarBlue) of ATDC5/FOP-ACVR1: not
ATDC5/FOP-ACVR1 cells [1]
  Viability (%) @10 μM: 92%
ATDC5/FOP-ACVR1 cells [2]
  IC50: 21 nM
ATDC5/FOP-ACVR1 cells [6]; 72 hr after Dox and compound, without BMP stimulation
  ALP activity of ATDC5/FOP-ACVR1: inhibited

## Cc1ccc(-n2nc(C(C)(C)C)cc2NC(=O)Nc2ccc(OCCN3CCOCC3)c3ccccc23)cc1 [BIRB 796]
[3]
  viability at 3 days, 10 µM: 99%
ATDC5/FOP-ACVR1 cells [2]; Mus musculus
  IC50: 9 nM

## pertuzumab: ERBB2-selective neutralizing antibody
FOP-iMSCs [5]; 1 µg/mL
  effect on GAG in the chondrogenesis of FOP-iMSCs (ERBB2 neutralizing antibodies): no effect

## Cn1c(=O)n(-c2ccc(C(C)(C)C#N)cc2)c2c3cc(-c4cnc5ccccc5c4)ccc3ncc21 [BEZ235]
[3]
  viability at 3 days, 10 µM: 21%
ATDC5/FOP-ACVR1 cells [2]; Mus musculus
  IC50: 87 nM

## CC(C)(C)n1nc(-c2cccc3ccccc23)c2c(N)ncnc21 [1-Naphthyl PP1]
ATDC5/FOP-ACVR1 cells [1]
  Viability (%) @10 μM: 83%
ATDC5/FOP-ACVR1 cells [2]
  IC50: 12200 nM
